Assay results taken from ChEMBL document CHEMBL4706758, “Novel Substituted Pyridazines as Splicing Modulators for Modulating Splicing of mRNA and Uses Thereof for Treating Diseases” (ACS Med Chem Lett, 2021).

Tests used:
[1] = Modulation of HTT mRNA exon 49b splicing in human GM04724 cells; format: cell-based
[2] = biological target: SMN2 pre-mRNA; assay: Modulation of SMN2 mRNA FL splicing in spinal muscular atrophy patient fibroblasts; format: tissue-based, Homo sapiens; settings: fibroblast
[3] = biological target: SMN2 pre-mRNA; assay: Modulation of SMN2 mRNA FL splicing in spinal muscular atrophy patient fibroblasts assessed as SMN2 protein potency; format: tissue-based, Homo sapiens; settings: fibroblast
[4] = Modulation of HTT mRNA splicing in human GM04724 cells assessed as mHTT protein potency; format: cell-based
[5] = Modulation of HTT mRNA exon 49-50 splicing in human GM04724 cells; format: cell-based
[6] = biological target: SMN2 pre-mRNA; assay: Modulation of SMN2 mRNA D7 splicing in spinal muscular atrophy patient fibroblasts; format: tissue-based, Homo sapiens; settings: fibroblast

Row | SMILES | EC50 [1] [nM] | EC50 [2] [nM] | EC50 [3] [nM] | EC50 [4] [nM] | EC50 [5] [nM] | IC50 [6] [nM]
1 | CN(c1ccc(-c2ccc(-c3cnn(C)c3)cc2O)nn1)[C@H]1C[C@@H]2CC[C@@](C)(N2)[C@H]1F | 0.01 | 0.01 | 0.01 | 0.01 | 0.01 | 0.01
2 | C[C@]12CC[C@H](C[C@@H](Oc3ccc(-c4ccc(-c5cn[nH]c5)cc4O)nn3)C1)N2 | 0.01 | 16 | 0.01 | 0.01 | 0.01 | 0.01
3 | COC[C@@]12CC[C@@H](C[C@H](N(C)c3ccc(-c4cc(F)c(-n5ccnc5)cc4O)nn3)C1)N2 | 0.01 | 0.01 | 0.01 | 0.01 | 0.01 | 0.01
4 | COC[C@]12CC[C@H](C[C@@H](N(C)c3ccc(-c4cc(F)c(-n5ccnc5)cc4O)nn3)C1)N2 | 0.01 | 0.01 | 0.01 | 0.01 | 0.01 | 0.01
5 | C[C@@]12CC[C@@H](C[C@H](Oc3ccc(-c4ccc(-n5ccnc5)cc4O)nn3)C1)N2 | 0.01 | 16 | 0.01 | 0.01 | 0.01 | 16
6 | C[C@@]12CC[C@@H](C[C@H](Oc3ccc(-c4ccc(-c5cn[nH]c5)cc4O)nn3)C1)N2 | 0.01 | 0.01 | 0.01 | 0.01 | 0.01 | 0.01
